Inconclusive results and toxic doses are left out. No stated cut-off is given here; in the data, active means T/C of 150% or more; inactive means T/C below 125%.
Tested on: L1210 leukemia ip in BDF1 mice, survival T/C
Assay: NCI In Vivo Anticancer Drug Screen. Data for tumor model L1210 Leukemia (intraperitoneal) in B6D2F1 (BDF1) mice
Settings: endpoint: mean survival time, higher = longer survival
How it was run: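 Read-out is survival time, reported as the treated-group measurement over the vehicle-control measurement.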

[1] = dose: 100.0 mg/kg/injection, schedule: Q01DX009 (ip), vehicle: Klucel (hydroxypropylcellulose) (HPC)
[2] = dose: 100.0 mg/kg/injection, schedule: Q04DX003 (ip), vehicle: Klucel (hydroxypropylcellulose) (HPC)
[3] = dose: 200.0 mg/kg/injection, schedule: Q01DX009 (ip), vehicle: Klucel (hydroxypropylcellulose) (HPC)
[4] = dose: 200.0 mg/kg/injection, schedule: Q04DX003 (ip), vehicle: Klucel (hydroxypropylcellulose) (HPC)
[5] = dose: 400.0 mg/kg/injection, schedule: Q01DX009 (ip), vehicle: Klucel (hydroxypropylcellulose) (HPC)
[6] = dose: 400.0 mg/kg/injection, schedule: Q04DX003 (ip), vehicle: Klucel (hydroxypropylcellulose) (HPC)
[7] = dose: 100.0 mg/kg/injection, schedule: Q01DX001 (ip), vehicle: saline with Tween-80
[8] = dose: 100.0 mg/kg/injection, schedule: Q04DX003 (ip), vehicle: saline with Tween-80
[9] = dose: 200.0 mg/kg/injection, schedule: Q01DX001 (ip), vehicle: saline with Tween-80
[10] = dose: 200.0 mg/kg/injection, schedule: Q04DX003 (ip), vehicle: saline with Tween-80
[11] = dose: 400.0 mg/kg/injection, schedule: Q04DX003 (ip), vehicle: saline with Tween-80
[12] = dose: 75.0 mg/kg/injection, schedule: Q01DX001 (ip), vehicle: saline
[13] = dose: 150.0 mg/kg/injection, schedule: Q01DX001 (ip), vehicle: saline
[14] = dose: 100.0 mg/kg/injection, schedule: Q01DX009 (ip), vehicle: saline with Tween-80
[15] = dose: 200.0 mg/kg/injection, schedule: Q01DX009 (ip), vehicle: saline with Tween-80
[16] = dose: 400.0 mg/kg/injection, schedule: Q01DX009 (ip), vehicle: saline with Tween-80
[17] = dose: 50.0 mg/kg/injection, schedule: Q01DX009 (ip), vehicle: saline with Tween-80

Measured: T/C

CCN(CC)CCN1C(=O)C(C)C=C(C)C=C1C (stereo not given)
inactive: dose: 9.0 mg/kg/injection, schedule: Q04DX003 (ip), vehicle: other 97 % of control | dose: 18.0 mg/kg/injection, schedule: Q04DX003 (ip), vehicle: other 92 % of control | dose: 19.0 mg/kg/injection, schedule: Q01DX009 (ip), vehicle: other 105 % of control | dose: 38.0 mg/kg/injection, schedule: Q01DX009 (ip), vehicle: other 105 % of control | dose: 75.0 mg/kg/injection, schedule: Q01DX001 (ip), vehicle: other 100 % of control | dose: 75.0 mg/kg/injection, schedule: Q01DX009 (ip), vehicle: other 105 % of control | dose: 75.0 mg/kg/injection, schedule: Q04DX003 (ip), vehicle: other 91 % of control

COC(=O)c1cccc(C)c1C(=O)c1ccccc1
inactive: [1] 104 % of control | [2] 101 % of control | [3] 96 % of control | [4] 101 % of control | [5] 98 % of control | [6] 95 % of control

O=C(O)CC1(c2ccccc2)OC(=O)c2ccccc21 (stereo not given)
inactive: dose: 50.0 mg/kg/injection, schedule: Q04DX002 (ip), vehicle: saline with Tween-80 92 % of control | dose: 100.0 mg/kg/injection, schedule: Q04DX002 (ip), vehicle: saline with Tween-80 92 % of control | dose: 200.0 mg/kg/injection, schedule: Q04DX002 (ip), vehicle: saline with Tween-80 99 % of control | dose: 400.0 mg/kg/injection, schedule: Q04DX002 (ip), vehicle: saline with Tween-80 89 % of control

O=C(c1ccccc1)C1OC1c1ccc([N+](=O)[O-])cc1 (stereo not given)
inactive: [7] 91 % of control | [8] 100 % of control | [9] 88 % of control | [10] 103 % of control | dose: 400.0 mg/kg/injection, schedule: Q01DX001 (ip), vehicle: saline with Tween-80 88 % of control | [11] 100 % of control

CCCN(CCC)CCCOC(=O)c1ccc(N)cc1
inactive: dose: 25.0 mg/kg/injection, schedule: Q01DX009 (ip), vehicle: saline 99 % of control | dose: 44.0 mg/kg/injection, schedule: Q04DX003 (ip), vehicle: saline 86 % of control | dose: 50.0 mg/kg/injection, schedule: Q01DX009 (ip), vehicle: saline 106 % of control | dose: 50.0 mg/kg/injection, schedule: Q04DX003 (ip), vehicle: saline 104 % of control | dose: 66.0 mg/kg/injection, schedule: Q04DX003 (ip), vehicle: saline 88 % of control | dose: 67.0 mg/kg/injection, schedule: Q04DX003 (ip), vehicle: saline 93 % of control | dose: 100.0 mg/kg/injection, schedule: Q01DX009 (ip), vehicle: saline 89 % of control

CN(C)c1ccc(C=C(Cl)Cl)cc1
inactive: dose: 50.0 mg/kg/injection, schedule: Q01DX005 (ip), vehicle: other 108 % of control | dose: 50.0 mg/kg/injection, schedule: Q01DX009 (ip), vehicle: other 96 % of control | dose: 100.0 mg/kg/injection, schedule: Q01DX005 (ip), vehicle: other 108 % of control | dose: 100.0 mg/kg/injection, schedule: Q01DX009 (ip), vehicle: other 107 % of control | dose: 200.0 mg/kg/injection, schedule: Q01DX005 (ip), vehicle: other 112 % of control | dose: 200.0 mg/kg/injection, schedule: Q01DX009 (ip), vehicle: other 100 % of control

N#Cc1cc(Cl)c(OCc2ccccc2)c(Cl)c1
inactive: dose: 50.0 mg/kg/injection, schedule: Q01DX001 (ip), vehicle: saline with Tween-80 102 % of control | [7] 104 % of control | [9] 95 % of control

Nc1cc2ncccc2c2ncccc12
inactive: [12] 107 % of control | [13] 102 % of control

CN1C(=O)NC2ON=C(c3ccccc3)C2C1=O (stereo not given)
inactive: [1] 103 % of control | [2] 100 % of control | [3] 104 % of control | [4] 103 % of control | [5] 104 % of control | [6] 100 % of control

CC(=O)c1cccc2c(C(C)=O)cccc12
inactive: dose: 50.0 mg/kg/injection, schedule: Q01DX001 (ip), vehicle: carboxymethylcellulose (CMC) 105 % of control | dose: 100.0 mg/kg/injection, schedule: Q01DX001 (ip), vehicle: carboxymethylcellulose (CMC) 103 % of control | dose: 200.0 mg/kg/injection, schedule: Q01DX001 (ip), vehicle: carboxymethylcellulose (CMC) 111 % of control | dose: 400.0 mg/kg/injection, schedule: Q01DX001 (ip), vehicle: carboxymethylcellulose (CMC) 103 % of control

O=C(O)COc1cc(Cl)ccn1
inactive: dose: 100.0 mg/kg/injection, schedule: Q04DX002 (ip), vehicle: Klucel (hydroxypropylcellulose) (HPC) 100 % of control | dose: 200.0 mg/kg/injection, schedule: Q04DX002 (ip), vehicle: Klucel (hydroxypropylcellulose) (HPC) 93 % of control | dose: 400.0 mg/kg/injection, schedule: Q04DX002 (ip), vehicle: Klucel (hydroxypropylcellulose) (HPC) 110 % of control

CN(C)C(=O)Sc1c(Cl)cc(Cl)cc1S(=O)(=O)F
inactive: [1] 97 % of control | [3] 100 % of control | [5] 97 % of control

Cc1ccc2ccccc2c1CC(=O)O
inactive: [1] 101 % of control | [2] 112 % of control | [3] 95 % of control | [4] 96 % of control | [5] 117 % of control | [6] 96 % of control

CNC(C)(C)C
inactive: [8] 93 % of control | [10] 93 % of control | [11] 86 % of control

CN=C(NC)c1ccc(NC(=O)/C=C\c2ccc(/C=C/C(=O)Nc3ccc(C(=NC)NC)cc3)cc2)cc1
inactive: dose: 7.5 mg/kg/injection, schedule: Q01DX Z (oral), vehicle: saline 95 % of control | dose: 15.0 mg/kg/injection, schedule: Q01DX Z (oral), vehicle: saline 91 % of control | dose: 30.0 mg/kg/injection, schedule: Q01DX Z (oral), vehicle: saline 95 % of control | dose: 60.0 mg/kg/injection, schedule: Q01DX Z (oral), vehicle: saline 103 % of control

CCN(C(=O)Nc1cccc(Cl)c1)c1ccccc1
inactive: [14] 90 % of control | [8] 96 % of control | [15] 90 % of control | [10] 97 % of control | [16] 86 % of control | [11] 97 % of control

CCN(CC)CCCNC(c1ccc(OC)c(OC)c1)C(Cl)(Cl)Cl (stereo not given)
inactive: [12] 98 % of control | [13] 91 % of control

CCOC(=O)CCCN(c1sc(C)c(-c2ccccc2)c1C(=O)OCC)S(=O)(=O)c1ccc(C)cc1
inactive: dose: 25.0 mg/kg/injection, schedule: Q01DX009 (ip), vehicle: saline with Tween-80 93 % of control | [17] 93 % of control | dose: 50.0 mg/kg/injection, schedule: Q04DX003 (ip), vehicle: saline with Tween-80 98 % of control | [8] 104 % of control | [15] 90 % of control | [10] 97 % of control | [16] 90 % of control | [11] 87 % of control

CCOC(=O)Nc1cccc(Cl)c1Cl
inactive: [8] 101 % of control | [10] 98 % of control | [11] 93 % of control

CC(C)C(=O)Nc1ccc(Cl)c(Cl)c1
inactive: dose: 222.0 mg/kg/injection, schedule: Q01DX Z (ip), vehicle: methylcellulose (MC) 111 % of control | dose: 333.0 mg/kg/injection, schedule: Q01DX Z (ip), vehicle: methylcellulose (MC) 98 % of control | dose: 500.0 mg/kg/injection, schedule: Q01DX Z (ip), vehicle: methylcellulose (MC) 102 % of control

C=CC[n+]1ccccc1C
inactive: [17] 91 % of control | [14] 91 % of control

c1ccc2cc(Nc3ccc(Nc4ccc5ccccc5c4)cc3)ccc2c1
inactive: dose: 75.0 mg/kg/injection, schedule: Q01DX009 (ip), vehicle: Klucel (hydroxypropylcellulose) (HPC) 103 % of control | dose: 100.0 mg/kg/injection, schedule: Q04DX003 (ip), vehicle: saline 106 % of control | dose: 150.0 mg/kg/injection, schedule: Q01DX009 (ip), vehicle: Klucel (hydroxypropylcellulose) (HPC) 104 % of control | dose: 200.0 mg/kg/injection, schedule: Q04DX003 (ip), vehicle: saline 97 % of control | dose: 300.0 mg/kg/injection, schedule: Q01DX009 (ip), vehicle: Klucel (hydroxypropylcellulose) (HPC) 110 % of control | dose: 400.0 mg/kg/injection, schedule: Q04DX003 (ip), vehicle: saline 100 % of control

Source: PubChem BioAssay AID248 (DTP/NCI, 2004)
